Data on 6 compounds can be found in patent US20230338270A1, “COSMETIC COMPOSITION FOR SKIN IMPROVEMENT COMPRISING, AS ACTIVE INGREDIENTS, POLYSACCHARIDES, YEAST EXTRACT, AND STRAIN FERMENTATION PRODUCT WITH CHARACTERISTICS OF PROBIOTICS” (LG HOUSEHOLD & HEALTH CARE LTD., priority 2020, published 2023).

What all share (assay type): cell-based
Assay [1] has as its system mouse Raw 264.7 cell line. The assay can be described thus: Suppression of inflammatory factor NO (Griess reagent, LPS-treated cells). Particulars: 20 µg/mL, 1 µg/mL LPS, 24 hours, control group. How it is done:
In order to identify the effect of the complexes of Preparation Examples on the production of NO as an inflammatory factor in cells, a mouse Raw 264.7 cell line was used, and a culture medium whose final pH was adjusted to 8.5 through addition of NaOH to Complete RPMI (RPMI:FBS:antibiotic = 10:1:0.1) was used as an initial culture medium.
When the Raw 264.7 cells appeared at the top of the culture medium after culture at 37° C. in the presence of 5% carbon dioxide for 24 hours, the cells were seeded in a 24-well plate in which a DMEM culture was prepared, followed by culture at 37° C. in the presence of 5% carbon dioxide for 24 hours. Thereafter, treatment was performed after diluting the complexes according to Preparation Examples 1 to 7 by the following concentrations while replacing the medium with a serum-free DMEM culture medium, followed by additional treatment of 1 µg/mL of LPS. After culture at 37° C. in the presence of 5% carbon dioxide for 24 hours, the supernatant was mixed with Griess reagent (Sigma-Aldrich) in a ratio of 1:1 to evaluate the ability to inhibit NO production with absorbance, and the average value was shown in Table 9 below.
NO production inhibition ability (%) = {1 - (NO production when compound is added / NO production in untreated group)} × 100
20 µg/mL of L-NMMA1 (N^G-Methyl-L-arginine acetate salt), an NO inhibitor, was used as a control group.
A general note: The Griess reaction detects nitrite, a stable product of nitric oxide.

The test system of assay [2] is human dermal papilla cells. The assay can be described thus: Activity of dermal papilla cells (CCK-8, optical density at 450 nm). Particulars: 1 µM, control group. As for the experimental part: In order to identify the effect of the complexes of Preparation Examples on dermal papilla cells, human dermal papilla cells (Promocell, C-12071) in the 4-8 passage were used as a cell line, and follicle dermal papilla cell growth media (Promocell, C-26501) were used as an initial culture medium.
Cells were seeded at a level of 3,000 to 6,000 cells per well in a 96-well plate, and cultured in an incubator at 37° C. in the presence of 5% carbon dioxide for 24 hours. Thereafter, the culture medium was replaced with DMEM medium supplemented with 0.1% fetal bovine serum (FBS) and cultured in an incubator at 37° C. in the presence of 5% carbon dioxide for 24 hours. Thereafter, the culture medium was replaced with DMEM supplemented with 0.1% FBS treated with the complexes according to Preparation Examples 1 to 7 by each concentration, followed by culture in an incubator at 37° C. in the presence of 5% carbon dioxide for 48 hours. After treating 10 µl of CCK-8 solutions per well, culture was performed at 37° C. for 1 hour, and optical density was measured at 450 nm.
The difference between the optical density measurement value and the initial measurement value after 48 hours for each well was standardized by dividing the difference by the initial measurement value for evaluation, and the average value was shown in Table 8 below. 1 µM minoxidil was treated as a control group. […]

For assay [3], the system named is Staphylococcus epidermidis (S. epidermidis). The assay can be described thus: Effect on growth of beneficial bacteria (optical density after culture in TSB). Particulars: for Effect on increase in beneficial bacteria (in words): Table 7; for Beneficial bacteria (S. epidermidis), average degree of increase or decrease compared to the untreated group: inoculated at a concentration of 1%, rotary culture 37° C. 16 hours.

Assay [4] concerns Staphylococcus aureus (S. aureus). The assay can be described thus: Effect on growth of harmful bacteria (optical density after culture in TSB). Particulars: for Effect on reduction in harmful bacteria (in words): Table 7; for Harmful bacteria (S. aureus), average degree of increase or decrease compared to the untreated group: inoculated at a concentration of 1%, rotary culture 37° C. 16 hours.

Assay [5] has as its system human skin fibroblasts. The assay can be described thus: Collagen biosynthesis rate (procollagen type I C-peptide EIA kit). Particulars: 10 ng/mL, 48 hours, control group. As for the experimental part: The effect of the complexes of Preparation Examples on the collagen biosynthesis rate in the human skin fibroblasts was identified. Skin fibroblasts were cultured in complete DMEM culture at 37° C. in the presence of 5% carbon dioxide for 72 hours. After seeding in a 24-well plate, culture was performed at 37° C. in the presence of 5% carbon dioxide for 24 hours. After treating the complexes according to Preparation Examples and culturing at 37° C. in the presence of 5% carbon dioxide for 48 hours, only the supernatant was separated, and the collagen synthesis effect was observed by absorbance using a procollagen type I C-peptide (PIP) EIA kit.
Collagen biosynthesis increase rate (%) = {(Absorbance of complex treated group -Absorbance of untreated group) / Absorbance of untreated group} × 100
10 ng/mL of TGF-β, a cytokine, was used as a control group.

For the compound `CC(=O)O.CNC(=N)NCCC[C@H](N)C(=O)O` [L-NMMA1, N^G-Methyl-L-arginine acetate salt], the “NO production inhibition ability, Average” value in assay [1] was found to be 52.1%.

Take `Nc1cc(N2CCCCC2)nc(N)[n+]1[O-]` [Minoxidil, minoxidil]: the “Dermal papilla cell activity, Average (optical density difference after 48 hours divided by initial value)” value in assay [2] was determined as 44.2.

On to Beta-glucan, for which, in assay [3], the “Effect on increase in beneficial bacteria (in words)” value (“Effect on increase” for short) is “no significant effect” and the “Beneficial bacteria (S. epidermidis), average degree of increase or decrease compared to the untreated group” value is -0.26%. Further, in assay [4], the “Effect on reduction in harmful bacteria (in words)” value (shortened to “Effect on reduction”) is listed as “no significant effect” and the “Harmful bacteria (S. aureus), average degree of increase or decrease compared to the untreated group” value is given as -0.78%.

As to Inulin, in assay [3], the “Effect on increase” value was “no significant effect” and the “Beneficial bacteria (S. epidermidis), average degree of increase or decrease compared to the untreated group” value stood at 0.29%. Also, in assay [4], the “Effect on reduction” value is listed as “no significant effect” and the “Harmful bacteria (S. aureus), average degree of increase or decrease compared to the untreated group” value is -0.84%.

Take Maltodextrin: in assay [3], the “Effect on increase” value is on record as “no significant effect” and the “Beneficial bacteria (S. epidermidis), average degree of increase or decrease compared to the untreated group” value worked out at 0.14%. Besides, in assay [4], the “Effect on reduction” value is given as “no significant effect” and the “Harmful bacteria (S. aureus), average degree of increase or decrease compared to the untreated group” value is 1.43%.

Consider TGF-β, for which the “Collagen biosynthesis increase rate, Average” value in assay [5] turned out to be 36.6%.
